Active and inactive are the calls of the source. No cut-off for these calls is given here.
Tests used:
MKN-45 [1] = experiment: Antiproliferative activity against human MKN-45 cells incubated for 72 hrs by CCK8 assay; format: functional, cell-based; settings: MKN-45, 72 h
[2] = target: T1, Protein cereblon/Hepatocyte growth factor receptor (Homo sapiens, UniProt P08581+Q96SW2); experiment: PROTAC activity at CRBN/c-MET in human MKN-45 cells assessed as induction of c-MET degradation at 1000 nM incubated for 24 hrs by Western blot analysis; format: cell-based
MKN-45 [3] = experiment: Induction of c-MET degradation in human MKN-45 cells assessed as residual activity at 100 nM incubated for 24 hrs by Western blot analysis (reference value: 100 %); format: cell-based
[4] = target: T2, von Hippel-Lindau disease tumor suppressor/Hepatocyte growth factor receptor (Homo sapiens, UniProt P08581+P40337); experiment: PROTAC activity at VHL/c-MET in human MKN-45 cells assessed as induction of c-MET degradation by measuring residual activity at 100 nM incubated for 24 hrs by Western blot analysis (reference value: 100 %); format: cell-based
Target sequence in this assay (P40337 whole entry partner): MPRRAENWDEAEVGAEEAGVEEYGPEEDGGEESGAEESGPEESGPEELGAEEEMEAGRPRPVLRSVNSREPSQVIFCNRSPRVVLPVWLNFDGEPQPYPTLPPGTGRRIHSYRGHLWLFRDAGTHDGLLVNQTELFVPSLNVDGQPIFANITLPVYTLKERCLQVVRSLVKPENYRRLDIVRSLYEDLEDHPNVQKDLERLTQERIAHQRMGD
Target sequence in this assay (P08581 25-1390 limits assumed): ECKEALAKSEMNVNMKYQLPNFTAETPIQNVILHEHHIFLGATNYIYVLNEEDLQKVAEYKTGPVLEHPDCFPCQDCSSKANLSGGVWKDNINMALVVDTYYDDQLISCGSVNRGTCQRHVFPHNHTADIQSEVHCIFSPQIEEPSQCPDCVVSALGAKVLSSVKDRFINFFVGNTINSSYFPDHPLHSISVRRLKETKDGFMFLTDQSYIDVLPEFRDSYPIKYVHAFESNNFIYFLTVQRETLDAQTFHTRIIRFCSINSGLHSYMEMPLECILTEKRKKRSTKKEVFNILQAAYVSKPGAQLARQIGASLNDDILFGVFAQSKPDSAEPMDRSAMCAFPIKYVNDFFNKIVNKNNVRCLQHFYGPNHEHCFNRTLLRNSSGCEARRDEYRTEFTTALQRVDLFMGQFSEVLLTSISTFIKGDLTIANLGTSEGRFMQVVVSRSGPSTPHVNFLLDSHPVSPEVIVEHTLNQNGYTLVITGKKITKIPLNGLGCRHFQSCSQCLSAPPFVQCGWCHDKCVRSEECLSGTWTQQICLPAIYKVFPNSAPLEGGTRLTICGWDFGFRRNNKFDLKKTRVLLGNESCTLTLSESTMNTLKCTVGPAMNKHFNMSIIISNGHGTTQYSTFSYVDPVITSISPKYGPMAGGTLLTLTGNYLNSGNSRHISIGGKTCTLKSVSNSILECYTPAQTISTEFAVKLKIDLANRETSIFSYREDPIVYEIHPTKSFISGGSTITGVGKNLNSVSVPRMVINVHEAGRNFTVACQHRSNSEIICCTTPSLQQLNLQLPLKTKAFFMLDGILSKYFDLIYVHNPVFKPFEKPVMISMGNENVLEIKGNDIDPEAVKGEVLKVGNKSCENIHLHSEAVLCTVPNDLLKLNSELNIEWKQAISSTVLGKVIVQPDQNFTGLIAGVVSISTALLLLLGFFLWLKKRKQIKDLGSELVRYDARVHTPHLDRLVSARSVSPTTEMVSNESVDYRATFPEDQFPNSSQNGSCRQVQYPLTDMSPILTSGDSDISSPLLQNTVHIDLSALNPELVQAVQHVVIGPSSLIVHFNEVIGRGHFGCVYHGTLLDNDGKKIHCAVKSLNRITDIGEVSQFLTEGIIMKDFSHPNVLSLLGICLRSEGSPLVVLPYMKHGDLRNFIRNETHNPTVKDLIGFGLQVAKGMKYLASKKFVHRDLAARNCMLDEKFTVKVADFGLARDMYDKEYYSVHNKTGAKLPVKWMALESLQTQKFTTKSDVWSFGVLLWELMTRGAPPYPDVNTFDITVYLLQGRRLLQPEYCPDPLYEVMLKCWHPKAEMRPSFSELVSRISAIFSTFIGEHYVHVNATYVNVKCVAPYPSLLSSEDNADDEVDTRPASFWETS

[5] = target: T2, von Hippel-Lindau disease tumor suppressor/Hepatocyte growth factor receptor; experiment: PROTAC activity at VHL/c-MET (unknown origin); format: protein
Target sequence in this assay (P08581 whole entry): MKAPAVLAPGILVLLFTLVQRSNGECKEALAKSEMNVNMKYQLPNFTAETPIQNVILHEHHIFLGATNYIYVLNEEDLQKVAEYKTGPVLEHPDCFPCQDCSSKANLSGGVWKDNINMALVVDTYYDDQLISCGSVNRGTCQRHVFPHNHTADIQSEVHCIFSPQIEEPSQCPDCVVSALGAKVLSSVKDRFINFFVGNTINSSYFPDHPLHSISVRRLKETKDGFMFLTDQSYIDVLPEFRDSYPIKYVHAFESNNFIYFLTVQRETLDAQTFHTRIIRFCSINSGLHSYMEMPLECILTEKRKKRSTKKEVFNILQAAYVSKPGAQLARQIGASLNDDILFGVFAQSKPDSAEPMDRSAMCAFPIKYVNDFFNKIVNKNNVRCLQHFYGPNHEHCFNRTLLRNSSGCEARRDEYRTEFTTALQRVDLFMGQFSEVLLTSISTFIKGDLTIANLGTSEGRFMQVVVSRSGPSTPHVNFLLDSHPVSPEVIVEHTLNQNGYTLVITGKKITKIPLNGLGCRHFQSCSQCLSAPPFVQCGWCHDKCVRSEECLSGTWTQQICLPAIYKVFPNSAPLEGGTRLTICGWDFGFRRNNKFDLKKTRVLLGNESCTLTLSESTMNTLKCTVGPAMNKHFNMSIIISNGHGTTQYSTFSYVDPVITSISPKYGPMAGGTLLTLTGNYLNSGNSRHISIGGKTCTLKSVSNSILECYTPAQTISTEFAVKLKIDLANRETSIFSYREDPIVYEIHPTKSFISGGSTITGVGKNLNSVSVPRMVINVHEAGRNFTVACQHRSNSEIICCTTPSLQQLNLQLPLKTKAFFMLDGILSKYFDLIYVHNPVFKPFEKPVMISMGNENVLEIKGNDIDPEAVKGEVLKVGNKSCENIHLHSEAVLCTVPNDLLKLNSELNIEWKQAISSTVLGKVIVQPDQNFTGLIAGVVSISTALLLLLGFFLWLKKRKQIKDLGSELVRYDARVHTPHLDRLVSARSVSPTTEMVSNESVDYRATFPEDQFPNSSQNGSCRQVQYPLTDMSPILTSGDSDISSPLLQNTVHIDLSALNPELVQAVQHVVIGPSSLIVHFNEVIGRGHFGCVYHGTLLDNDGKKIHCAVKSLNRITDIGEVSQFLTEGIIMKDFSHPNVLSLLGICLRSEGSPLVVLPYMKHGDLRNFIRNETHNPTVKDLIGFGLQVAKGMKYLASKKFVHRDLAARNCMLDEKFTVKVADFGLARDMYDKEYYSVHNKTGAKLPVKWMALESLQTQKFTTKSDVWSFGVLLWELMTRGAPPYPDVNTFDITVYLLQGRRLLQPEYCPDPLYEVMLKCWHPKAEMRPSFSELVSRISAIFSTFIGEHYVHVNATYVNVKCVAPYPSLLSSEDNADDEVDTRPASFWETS
Target sequence in this assay (P40337 whole entry): as the sequence (P40337 whole entry partner) above

[6] = target: T1, Protein cereblon/Hepatocyte growth factor receptor; experiment: PROTAC activity at CRBN/c-MET in human MKN-45 cells assessed as induction of c-MET degradation at 3.125 to 50 nM by Western blot analysis; format: cell-based; settings: dose 3.125-50 nM
[7] = target: T2, von Hippel-Lindau disease tumor suppressor/Hepatocyte growth factor receptor; experiment: PROTAC activity at VHL/c-MET in human MKN-45 cells assessed as induction of c-MET degradation at 100 to 1000 nM incubated for 24 hrs by Western blot analysis relative to control; format: cell-based; settings: dose 100-1000 nM
Target sequence in this assay (P40337 whole entry partner): as above
Target sequence in this assay (P08581 25-1390 limits assumed): as the sequence (P08581 25-1390 limits assumed) above

T1 sequence (P08581 25-1390 limits assumed): as above
T1 sequence (Q96SW2 whole entry partner): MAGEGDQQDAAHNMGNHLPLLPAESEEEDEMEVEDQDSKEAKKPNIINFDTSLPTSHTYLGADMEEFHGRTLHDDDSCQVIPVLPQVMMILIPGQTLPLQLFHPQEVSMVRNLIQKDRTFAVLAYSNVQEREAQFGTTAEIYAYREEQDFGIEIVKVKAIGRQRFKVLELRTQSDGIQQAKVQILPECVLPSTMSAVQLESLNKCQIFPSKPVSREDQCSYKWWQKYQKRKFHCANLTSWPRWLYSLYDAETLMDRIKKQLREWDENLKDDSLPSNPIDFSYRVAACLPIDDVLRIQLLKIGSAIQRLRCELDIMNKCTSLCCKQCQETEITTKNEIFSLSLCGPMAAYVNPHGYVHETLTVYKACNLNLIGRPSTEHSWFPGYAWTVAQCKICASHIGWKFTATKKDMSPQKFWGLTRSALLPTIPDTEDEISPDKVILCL

SMILES	IC50 (MKN-45 [1])	Activity [4]	also measured
O=C(COc1cccc2c1C(=O)N(C1CCC(=O)NC1=O)C2=O)NCCCCCCCCNC(=O)c1ccc(-c2cnc3ncc(Cc4ccc5ncccc5c4)n3n2)cc1F (stereo unspecified)	15.3 nM		Activity [2]: inactive
CN1CCC(COc2cnc(-c3cccc(Cn4nc(-c5cccc(C#N)c5)ccc4=O)c3)nc2)CC1			Activity (MKN-45 [3]): 107%
Cc1ncsc1-c1ccc([C@H](C)NC(=O)[C@@H]2C[C@@H](O)CN2C(=O)[C@@H](NC(=O)CN2CCN(CCCCCCNC(=O)c3ccc(-c4cnc5ncc(Cc6ccc7ncccc7c6)n5n4)cc3F)CC2)C(C)(C)C)cc1		79%	
Cc1ncsc1-c1ccc([C@H](C)NC(=O)[C@@H]2C[C@@H](O)CN2C(=O)[C@@H](NC(=O)CCOCCOCCOCCC(=O)N2CCC(COc3cnc(-c4cccc(Cn5nc(-c6cccc(C#N)c6)ccc5=O)c4)nc3)CC2)C(C)(C)C)cc1		56%	
Cc1ncsc1-c1ccc([C@H](C)NC(=O)[C@@H]2C[C@@H](O)CN2C(=O)[C@@H](NC(=O)CN2CCN(CC(=O)N3CCC(COc4cnc(-c5cccc(Cn6nc(-c7cccc(C#N)c7)ccc6=O)c5)nc4)CC3)CC2)C(C)(C)C)cc1		40%	
Cc1ncsc1-c1ccc([C@H](C)NC(=O)[C@@H]2C[C@@H](O)CN2C(=O)[C@@H](NC(=O)CN2CCN(CCCCCC(=O)N3CCC(COc4cnc(-c5cccc(Cn6nc(-c7cccc(C#N)c7)ccc6=O)c5)nc4)CC3)CC2)C(C)(C)C)cc1		71%	
COc1cc2c(Oc3ccc(NC(=O)C4(C(=O)Nc5ccc(F)cc5)CC4)cc3F)ccnc2cc1OCCCOCCCOCCC(=O)N[C@H](C(=O)N1C[C@H](O)C[C@H]1C(=O)NCc1ccc(-c2scnc2C)cc1)C(C)(C)C			DC50 [5]: > 10 nM
Cc1ncsc1-c1ccc([C@H](C)NC(=O)[C@@H]2C[C@@H](O)CN2C(=O)[C@@H](NC(=O)CN2CCN(CCCCNC(=O)c3ccc(-c4cnc5ncc(Cc6ccc7ncccc7c6)n5n4)cc3F)CC2)C(C)(C)C)cc1		78%	
Cc1ncsc1-c1ccc([C@H](C)NC(=O)[C@@H]2C[C@@H](O)CN2C(=O)[C@@H](NC(=O)COCCOCCNC(=O)c2ccc(-c3cnc4ncc(Cc5ccc6ncccc6c5)n4n3)cc2F)C(C)(C)C)cc1		70%	
CN1C(=O)CCC(N2C(=O)c3ccc(N4CCN(CC5CCN(C(=O)c6ccc(-c7cnc8ncc(Cc9ccc%10ncccc%10c9)n8n7)cc6F)CC5)CC4)cc3C2=O)C1=O (stereo unspecified)	73.5 nM		Activity [6]: inactive
Cc1ncsc1-c1ccc([C@H](C)NC(=O)[C@@H]2C[C@@H](O)CN2C(=O)[C@@H](NC(=O)COCCOCCOCCOCCNC(=O)c2ccc(-c3cnc4ncc(Cc5ccc6ncccc6c5)n4n3)cc2F)C(C)(C)C)cc1		75%	
O=C(COc1cccc2c1C(=O)N(C1CCC(=O)NC1=O)C2=O)NCCCCCCCCCCNC(=O)c1ccc(-c2cnc3ncc(Cc4ccc5ncccc5c4)n3n2)cc1F (stereo unspecified)	27.3 nM		Activity [2]: inactive
Cc1ncsc1-c1ccc([C@H](C)NC(=O)[C@@H]2C[C@@H](O)CN2C(=O)[C@@H](NC(=O)COCCOCCOCCNC(=O)c2ccc(-c3cnc4ncc(Cc5ccc6ncccc6c5)n4n3)cc2F)C(C)(C)C)cc1		73%	
Cc1ncsc1-c1ccc([C@H](C)NC(=O)[C@@H]2C[C@@H](O)CN2C(=O)[C@@H](NC(=O)CN2CCN(CCNC(=O)c3ccc(-c4cnc5ncc(Cc6ccc7ncccc7c6)n5n4)cc3F)CC2)C(C)(C)C)cc1		61%	
Cc1ncsc1-c1ccc([C@H](C)NC(=O)[C@@H]2C[C@@H](O)CN2C(=O)[C@@H](NC(=O)CCOCCOCCOCCOCCC(=O)N2CCC(COc3cnc(-c4cccc(Cn5nc(-c6cccc(C#N)c6)ccc5=O)c4)nc3)CC2)C(C)(C)C)cc1		62%	
Cc1ncsc1-c1ccc([C@H](C)NC(=O)[C@@H]2C[C@@H](O)CN2C(=O)[C@@H](NC(=O)CCCCCNC(=O)c2ccc(-c3cnc4ncc(Cc5ccc6ncccc6c5)n4n3)cc2F)C(C)(C)C)cc1	74.9 nM	68%	
Cc1ncsc1-c1ccc([C@H](C)NC(=O)[C@@H]2C[C@@H](O)CN2C(=O)[C@@H](NC(=O)CN2CCN(CCCC(=O)N3CCC(COc4cnc(-c5cccc(Cn6nc(-c7cccc(C#N)c7)ccc6=O)c5)nc4)CC3)CC2)C(C)(C)C)cc1		61%	
C[C@@H](Oc1cc(-c2cnn(C3CCNCC3)c2)cnc1N)c1c(Cl)ccc(F)c1Cl			Activity (MKN-45 [3]): 110%

Second part, led by results:

IC50 (MKN-45 [1])	Activity [4]	SMILES	also measured
47.8 nM		Cc1ncsc1-c1ccc([C@H](C)NC(=O)[C@@H]2C[C@@H](O)CN2C(=O)[C@@H](NC(=O)CCCCCCCCCCNC(=O)c2ccc(-c3cnc4ncc(Cc5ccc6ncccc6c5)n4n3)cc2F)C(C)(C)C)cc1	
> 200 nM		Cc1ncsc1-c1ccc([C@H](C)NC(=O)[C@@H]2C[C@@H](O)CN2C(=O)[C@@H](NC(=O)CCCCCCNC(=O)c2ccc(-c3cnc4ncc(Cc5ccc6ncccc6c5)n4n3)cc2F)C(C)(C)C)cc1	
	107%	Cc1ncsc1-c1ccc([C@H](C)NC(=O)[C@@H]2C[C@@H](O)CN2C(=O)[C@@H](NC(=O)CCOCCOCCC(=O)N2CCC(n3cc(-c4cnc(N)c(O[C@H](C)c5c(Cl)ccc(F)c5Cl)c4)cn3)CC2)C(C)(C)C)cc1	
> 200 nM	78%	Cc1ncsc1-c1ccc([C@H](C)NC(=O)[C@@H]2C[C@@H](O)CN2C(=O)[C@@H](NC(=O)CCCCCCC(=O)N2CCC(n3cc(-c4cnc(N)c(O[C@H](C)c5c(Cl)ccc(F)c5Cl)c4)cn3)CC2)C(C)(C)C)cc1	
	123%	Cc1ncsc1-c1ccc([C@H](C)NC(=O)[C@@H]2C[C@@H](O)CN2C(=O)[C@@H](NC(=O)CN2CCN(CC(=O)N3CCC(n4cc(-c5cnc(N)c(O[C@H](C)c6c(Cl)ccc(F)c6Cl)c5)cn4)CC3)CC2)C(C)(C)C)cc1	
29.1 nM	51%	Cc1ncsc1-c1ccc([C@H](C)NC(=O)[C@@H]2C[C@@H](O)CN2C(=O)[C@@H](NC(=O)CCCCCCCCCCCNC(=O)c2ccc(-c3cnc4ncc(Cc5ccc6ncccc6c5)n4n3)cc2F)C(C)(C)C)cc1	
	111%	Cc1ncsc1-c1ccc([C@H](C)NC(=O)[C@@H]2C[C@@H](O)CN2C(=O)[C@@H](NC(=O)CN2CCN(CCCC(=O)N3CCC(n4cc(-c5cnc(N)c(O[C@H](C)c6c(Cl)ccc(F)c6Cl)c5)cn4)CC3)CC2)C(C)(C)C)cc1	
	115%	Cc1ncsc1-c1ccc([C@H](C)NC(=O)[C@@H]2C[C@@H](O)CN2C(=O)[C@@H](NC(=O)CN2CCN(CCCCCC(=O)N3CCC(n4cc(-c5cnc(N)c(O[C@H](C)c6c(Cl)ccc(F)c6Cl)c5)cn4)CC3)CC2)C(C)(C)C)cc1	
149 nM	56%	Cc1ncsc1-c1ccc([C@H](C)NC(=O)[C@@H]2C[C@@H](O)CN2C(=O)[C@@H](NC(=O)CCCCCCCCCCC(=O)N2CCC(COc3cnc(-c4cccc(Cn5nc(-c6cccc(C#N)c6)ccc5=O)c4)nc3)CC2)C(C)(C)C)cc1	
> 200 nM	100%	Cc1ncsc1-c1ccc([C@H](C)NC(=O)[C@@H]2C[C@@H](O)CN2C(=O)[C@@H](NC(=O)CCCCC(=O)N2CCC(n3cc(-c4cnc(N)c(O[C@H](C)c5c(Cl)ccc(F)c5Cl)c4)cn3)CC2)C(C)(C)C)cc1	
	106%	Cc1ncsc1-c1ccc([C@H](C)NC(=O)[C@@H]2C[C@@H](O)CN2C(=O)[C@@H](NC(=O)CCOCCOCCOCCC(=O)N2CCC(n3cc(-c4cnc(N)c(O[C@H](C)c5c(Cl)ccc(F)c5Cl)c4)cn3)CC2)C(C)(C)C)cc1	
20.5 nM	22%	Cc1ncsc1-c1ccc([C@H](C)NC(=O)[C@@H]2C[C@@H](O)CN2C(=O)[C@@H](NC(=O)CCCCCCCCCNC(=O)c2ccc(-c3cnc4ncc(Cc5ccc6ncccc6c5)n4n3)cc2F)C(C)(C)C)cc1	
	66%	Cc1ncsc1-c1ccc([C@H](C)NC(=O)[C@@H]2C[C@@H](O)CN2C(=O)[C@@H](NC(=O)CCOCCOCCC(=O)N2CCC(COc3cnc(-c4cccc(Cn5nc(-c6cccc(C#N)c6)ccc5=O)c4)nc3)CC2)C(C)(C)C)cc1	
44.7 nM		Cc1ncsc1-c1ccc([C@H](C)NC(=O)[C@@H]2C[C@@H](O)CN2C(=O)[C@@H](NC(=O)CCCCCCCCNC(=O)c2ccc(-c3cnc4ncc(Cc5ccc6ncccc6c5)n4n3)cc2F)C(C)(C)C)cc1	
> 200 nM	73%	Cc1ncsc1-c1ccc([C@H](C)NC(=O)[C@@H]2C[C@@H](O)CN2C(=O)[C@@H](NC(=O)CCCCCCCCCCC(=O)N2CCC(n3cc(-c4cnc(N)c(O[C@H](C)c5c(Cl)ccc(F)c5Cl)c4)cn3)CC2)C(C)(C)C)cc1	
52.3 nM	19%	Cc1ncsc1-c1ccc([C@H](C)NC(=O)[C@@H]2C[C@@H](O)CN2C(=O)[C@@H](NC(=O)CCCCCCCNC(=O)c2ccc(-c3cnc4ncc(Cc5ccc6ncccc6c5)n4n3)cc2F)C(C)(C)C)cc1	Activity [7]: > 80%
	127%	Cc1ncsc1-c1ccc([C@H](C)NC(=O)[C@@H]2C[C@@H](O)CN2C(=O)[C@@H](NC(=O)CCOCCOCCOCCOCCC(=O)N2CCC(n3cc(-c4cnc(N)c(O[C@H](C)c5c(Cl)ccc(F)c5Cl)c4)cn3)CC2)C(C)(C)C)cc1	
> 200 nM	74%	Cc1ncsc1-c1ccc([C@H](C)NC(=O)[C@@H]2C[C@@H](O)CN2C(=O)[C@@H](NC(=O)CCCCC(=O)N2CCC(COc3cnc(-c4cccc(Cn5nc(-c6cccc(C#N)c6)ccc5=O)c4)nc3)CC2)C(C)(C)C)cc1	
35.5 nM	64%	Cc1ncsc1-c1ccc([C@H](C)NC(=O)[C@@H]2C[C@@H](O)CN2C(=O)[C@@H](NC(=O)CCCCCCC(=O)N2CCC(COc3cnc(-c4cccc(Cn5nc(-c6cccc(C#N)c6)ccc5=O)c4)nc3)CC2)C(C)(C)C)cc1	

Reference: ChEMBL document CHEMBL6120971 (J Med Chem, 2024)
